Where “and” joins values, the source holds several entries; their conditions need not be identical. Equal values may be shown once.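 Protocol summary: plate cells (96-well), add compound at 5 concentrations, incubate 48 h, interpolate endpoints linearly. At the GI50, growth is halved. Definition used: TGI = concentration required for complete inhibition of growth.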
Key:
Test in all cases: NCI-60 cell line screen, 48 h
A498 renal = test system: A498 renal
MDA-MB-231 breast = test system: MDA-MB-231 breast
NCI-H23 lung = test system: NCI-H23 lung
NCI-H460 lung = test system: NCI-H460 lung
OVCAR-3 ovarian = test system: OVCAR-3 ovarian
PC-3 prostate = test system: PC-3 prostate
SF-539 CNS = test system: SF-539 CNS
SK-MEL-28 melanoma = test system: SK-MEL-28 melanoma
SK-OV-3 ovarian = test system: SK-OV-3 ovarian
SN12C renal = test system: SN12C renal
SW-620 colon = test system: SW-620 colon
UO-31 renal = test system: UO-31 renal

## COc1ccc(-c2nc(SC)n(C3OC(COC(C)=O)C(OC(C)=O)C(OC(C)=O)C3OC(C)=O)c(=O)c2C#N)cc1 (stereo not drawn)
A498 renal
  GI50: 8.43 µM and 44.1 µM
  TGI: 44.5 µM and > 100 µM
MDA-MB-231 breast
  TGI: > 100 µM
NCI-H23 lung
  GI50: 35.7 µM and > 100 µM
  TGI: > 100 µM
NCI-H460 lung
  GI50: 80.4 µM and 14.4 µM
  TGI: > 100 µM
OVCAR-3 ovarian
  GI50: 38.2 µM and > 100 µM
  TGI: > 100 µM
PC-3 prostate
  TGI: > 100 µM
SF-539 CNS
  GI50: 31.3 µM and > 100 µM
  TGI: 81.9 µM and > 100 µM
SK-MEL-28 melanoma
  TGI: > 100 µM
SK-OV-3 ovarian
  GI50: 34.5 µM and > 100 µM
  TGI: 98.4 µM and > 100 µM
SN12C renal
  TGI: > 100 µM
SW-620 colon
  TGI: > 100 µM
UO-31 renal
  TGI: 77.6 µM and > 100 µM

## OC[C@@H](O)[C@H](O)[C@@H](O)/C=N/Nc1ccc(Cl)nn1
A498 renal
  TGI: > 100 µM
MDA-MB-231 breast
  TGI: > 100 µM
NCI-H23 lung
  TGI: > 100 µM
NCI-H460 lung
  TGI: > 100 µM
OVCAR-3 ovarian
  TGI: > 100 µM
PC-3 prostate
  TGI: > 100 µM
SF-539 CNS
  TGI: > 100 µM
SK-MEL-28 melanoma
  TGI: > 100 µM
SK-OV-3 ovarian
  TGI: > 100 µM
SN12C renal
  TGI: > 100 µM
SW-620 colon
  TGI: > 100 µM

## Fc1cc2nc3n(c2cc1F)C(c1c(Cl)cccc1Cl)SC3 (stereo not drawn)
A498 renal
  TGI: 34.6 µM
MDA-MB-231 breast
  TGI: 34.6 µM
NCI-H23 lung
  TGI: 35.7 µM
NCI-H460 lung
  TGI: 26.6 µM
OVCAR-3 ovarian
  TGI: 25.7 µM
PC-3 prostate
  TGI: 31.3 µM
SF-539 CNS
  TGI: 37.1 µM
SK-MEL-28 melanoma
  TGI: 28.6 µM
SK-OV-3 ovarian
  TGI: 30.6 µM
SN12C renal
  TGI: 29.8 µM
SW-620 colon
  TGI: 34 µM
UO-31 renal
  TGI: 29.3 µM

## O=C1CSC(c2cccc(Oc3ccccc3)c2)N1c1cccc(Cl)c1Cl (stereo not drawn)
A498 renal
  TGI: 93.5 µM
MDA-MB-231 breast
  TGI: > 100 µM
NCI-H23 lung
  TGI: 91.4 µM
NCI-H460 lung
  TGI: 71.5 µM
OVCAR-3 ovarian
  TGI: > 100 µM
PC-3 prostate
  TGI: 95.3 µM
SF-539 CNS
  TGI: 58.3 µM
SK-MEL-28 melanoma
  TGI: > 100 µM
SK-OV-3 ovarian
  TGI: > 100 µM
SN12C renal
  TGI: > 100 µM
SW-620 colon
  TGI: > 100 µM
UO-31 renal
  TGI: > 100 µM

## Cc1ccc(N2C3=C(CC4=C2CC(C)(C)CC4=O)C(=O)CC(C)(C)C3)cc1
A498 renal
  TGI: > 100 µM
MDA-MB-231 breast
  TGI: > 100 µM
NCI-H23 lung
  TGI: > 100 µM
NCI-H460 lung
  TGI: > 100 µM
OVCAR-3 ovarian
  TGI: > 100 µM
PC-3 prostate
  TGI: > 100 µM
SF-539 CNS
  TGI: > 100 µM
SK-MEL-28 melanoma
  TGI: > 100 µM
SK-OV-3 ovarian
  TGI: > 100 µM
SN12C renal
  TGI: > 100 µM
SW-620 colon
  TGI: > 100 µM
UO-31 renal
  TGI: > 100 µM

## COc1ccc(Br)c(C=Nc2cccc3cc(OC)c(OC)cc23)c1
A498 renal
  TGI: > 100 µM
MDA-MB-231 breast
  TGI: > 46.4 µM
NCI-H23 lung
  TGI: > 100 µM
NCI-H460 lung
  TGI: > 100 µM
OVCAR-3 ovarian
  TGI: > 100 µM
PC-3 prostate
  TGI: > 100 µM
SF-539 CNS
  TGI: 12.4 µM
SK-MEL-28 melanoma
  TGI: > 100 µM
SK-OV-3 ovarian
  TGI: > 100 µM
SN12C renal
  TGI: > 46.4 µM
SW-620 colon
  TGI: 51.1 µM
UO-31 renal
  TGI: 97.5 µM

## CC(C)C[C@H](NC(=O)CCc1cccc2ccccc12)B(O)O
A498 renal
  TGI: 6.12 µM
MDA-MB-231 breast
  TGI: 15.2 µM
NCI-H23 lung
  TGI: 7.81 µM
NCI-H460 lung
  TGI: 19.5 µM
OVCAR-3 ovarian
  TGI: 1.86 µM
PC-3 prostate
  TGI: 29.3 µM
SF-539 CNS
  TGI: 1.21 µM
SK-MEL-28 melanoma
  TGI: 4.05 µM
SK-OV-3 ovarian
  TGI: > 86.4 µM
SN12C renal
  TGI: 21 µM
SW-620 colon
  TGI: 3.26 µM
UO-31 renal
  TGI: 8.73 µM

## O=C1c2cc([N+](=O)[O-])sc2C(=O)c2cc([N+](=O)[O-])sc21
A498 renal
  TGI: 32.7 µM
MDA-MB-231 breast
  TGI: 5.66 µM
NCI-H23 lung
  TGI: 15.5 µM
NCI-H460 lung
  TGI: 43.8 µM
OVCAR-3 ovarian
  TGI: 6.65 µM
PC-3 prostate
  TGI: 15.9 µM
SF-539 CNS
  TGI: 8.51 µM
SK-MEL-28 melanoma
  TGI: 8.3 µM
SK-OV-3 ovarian
  TGI: 25.2 µM
SN12C renal
  TGI: 7.12 µM
SW-620 colon
  TGI: 3.37 µM
UO-31 renal
  TGI: 7.68 µM

## CCSc1nc(C)nc2c1sc1nc3ccccc3n12
A498 renal
  TGI: > 100 µM
MDA-MB-231 breast
  TGI: > 100 µM
NCI-H23 lung
  TGI: > 100 µM
NCI-H460 lung
  TGI: > 100 µM
OVCAR-3 ovarian
  TGI: > 100 µM
PC-3 prostate
  TGI: > 100 µM
SF-539 CNS
  TGI: > 100 µM
SK-MEL-28 melanoma
  TGI: > 100 µM
SK-OV-3 ovarian
  TGI: > 100 µM
SN12C renal
  TGI: > 100 µM
SW-620 colon
  TGI: > 100 µM
UO-31 renal
  TGI: > 100 µM

## CN(C)c1c(C2CC(O)C(CO)O2)c(=O)c1=O (stereo not drawn)
A498 renal
  TGI: > 100 µM
MDA-MB-231 breast
  TGI: > 100 µM
NCI-H460 lung
  TGI: > 100 µM
OVCAR-3 ovarian
  TGI: > 100 µM
PC-3 prostate
  TGI: > 100 µM
SF-539 CNS
  TGI: > 100 µM
SK-MEL-28 melanoma
  TGI: > 100 µM
SK-OV-3 ovarian
  TGI: > 100 µM
SN12C renal
  TGI: > 100 µM
SW-620 colon
  TGI: > 100 µM
UO-31 renal
  TGI: > 100 µM

## O=c1oc2ccccc2n1CCCn1c(=O)oc2ccccc21
A498 renal
  TGI: > 100 µM
MDA-MB-231 breast
  TGI: > 100 µM
NCI-H23 lung
  TGI: > 100 µM
NCI-H460 lung
  TGI: > 100 µM
OVCAR-3 ovarian
  TGI: > 100 µM
PC-3 prostate
  TGI: > 100 µM
SF-539 CNS
  TGI: > 100 µM
SK-MEL-28 melanoma
  TGI: > 100 µM
SK-OV-3 ovarian
  TGI: > 100 µM
SN12C renal
  TGI: > 100 µM
SW-620 colon
  TGI: > 100 µM

## COC(=O)C1SC[C@H]2C(=O)N(c3ccccc3)C(=O)N12 (stereo partly drawn)
A498 renal
  TGI: > 100 µM
MDA-MB-231 breast
  TGI: > 100 µM
NCI-H23 lung
  TGI: > 100 µM
NCI-H460 lung
  TGI: > 100 µM
OVCAR-3 ovarian
  TGI: > 100 µM
PC-3 prostate
  TGI: > 100 µM
SF-539 CNS
  TGI: > 100 µM
SK-MEL-28 melanoma
  TGI: > 100 µM
SK-OV-3 ovarian
  TGI: > 100 µM
SN12C renal
  TGI: > 100 µM
SW-620 colon
  TGI: > 100 µM
UO-31 renal
  TGI: > 100 µM

## CCOC(=O)/C=C(/C(=O)OCC)n1ccc(=O)n(CC(=O)OCC)c1=O
A498 renal
  TGI: 28 µM
MDA-MB-231 breast
  TGI: 4.41 µM
NCI-H23 lung
  TGI: 3.77 µM
NCI-H460 lung
  TGI: 15.1 µM
OVCAR-3 ovarian
  TGI: 2.44 µM
PC-3 prostate
  TGI: 3.22 µM
SF-539 CNS
  TGI: 7.88 µM
SK-MEL-28 melanoma
  TGI: 3.32 µM
SK-OV-3 ovarian
  TGI: 27.6 µM
SN12C renal
  GI50: 2 µM
  TGI: 4.61 µM
SW-620 colon
  TGI: 0.707 µM
UO-31 renal
  TGI: 3.03 µM

## C[C@H]1[C@H](C)CC[C@]2(C(=O)OC3OC(CO)C(O)C(O)C3O)CC[C@]3(C)C(=CC[C@@H]4[C@@]5(C)C[C@@H](O)[C@@H]6OC(=O)c7cc(O)c(O)c(O)c7-c7c(cc(O)c(O)c7O)C(=O)OC[C@]6(CO)[C@@H]5CC[C@]43C)[C@H]12 (stereo partly drawn)
A498 renal
  TGI: > 100 µM
MDA-MB-231 breast
  TGI: 26.4 µM
NCI-H23 lung
  TGI: > 100 µM
NCI-H460 lung
  TGI: > 100 µM
OVCAR-3 ovarian
  TGI: > 72.1 µM
PC-3 prostate
  TGI: > 100 µM
SF-539 CNS
  TGI: > 100 µM
SK-MEL-28 melanoma
  TGI: > 100 µM
SK-OV-3 ovarian
  TGI: > 100 µM
SN12C renal
  TGI: > 100 µM
SW-620 colon
  TGI: > 63.3 µM
UO-31 renal
  TGI: > 100 µM

## COc1cc(OC2OC(CO)C(O)C(O)C2O)c2c(c1)O[C@@H]1[C@H](O)Oc3cc(OC)c(OC)cc3[C@]1(O)C2=O (stereo partly drawn)
A498 renal
  TGI: > 25 µM
MDA-MB-231 breast
  TGI: > 25 µM
NCI-H23 lung
  TGI: > 25 µM
NCI-H460 lung
  TGI: > 25 µM
OVCAR-3 ovarian
  TGI: > 25 µM
PC-3 prostate
  TGI: > 25 µM
SF-539 CNS
  TGI: > 25 µM
SK-MEL-28 melanoma
  TGI: > 25 µM
SK-OV-3 ovarian
  TGI: > 25 µM
SN12C renal
  TGI: > 25 µM
SW-620 colon
  TGI: > 25 µM
UO-31 renal
  TGI: > 25 µM

## COC(=O)/C=C/c1cnc2c(c1)oc(=O)n2C
A498 renal
  TGI: > 100 µM
MDA-MB-231 breast
  TGI: > 100 µM
NCI-H23 lung
  TGI: > 100 µM
NCI-H460 lung
  TGI: > 100 µM
OVCAR-3 ovarian
  TGI: > 100 µM
PC-3 prostate
  TGI: > 100 µM
SF-539 CNS
  TGI: > 100 µM
SK-MEL-28 melanoma
  TGI: > 100 µM
SK-OV-3 ovarian
  TGI: > 100 µM
SN12C renal
  TGI: > 100 µM
SW-620 colon
  TGI: > 100 µM
UO-31 renal
  TGI: > 100 µM

## CN(/N=C/c1ccccc1C(=O)O)C1=NCCCCN1
A498 renal
  TGI: > 100 µM
MDA-MB-231 breast
  TGI: > 100 µM
NCI-H23 lung
  TGI: > 100 µM
NCI-H460 lung
  TGI: > 100 µM
OVCAR-3 ovarian
  TGI: > 100 µM
PC-3 prostate
  TGI: > 100 µM
SF-539 CNS
  TGI: > 100 µM
SK-OV-3 ovarian
  TGI: > 100 µM
SN12C renal
  TGI: > 100 µM
SW-620 colon
  TGI: > 100 µM
UO-31 renal
  TGI: > 100 µM

## CCN(CCCl)c1cc(CN(C)C)cc(NC(=O)c2ccc(C(=O)Nc3ccccc3)cc2)c1
A498 renal
  TGI: 1.8 µM
MDA-MB-231 breast
  TGI: 7.55 µM
NCI-H23 lung
  TGI: 1.27 µM
NCI-H460 lung
  TGI: 1.27 µM
PC-3 prostate
  TGI: 1.56 µM
SF-539 CNS
  TGI: 2.26 µM
SK-MEL-28 melanoma
  TGI: 4.36 µM
SK-OV-3 ovarian
  TGI: 11.1 µM
SN12C renal
  TGI: 5.21 µM
SW-620 colon
  TGI: 0.339 µM
UO-31 renal
  TGI: 4.4 µM

— PubChem BioAssay (NCI)
